US4130709A, “Pleuromutilin glycoside derivatives” (Eli Lilly and Company, priority 1977, dated 1978)
In brackets after ≈: the same amount, converted by molar mass. Like-named read-outs stand apart in the source and are kept apart here.

What was measured:
Assay type in all cases: cell-based
[1] = test system: Bacteroides melaninogenicus 1856/28; assay: standard agar-dilution test, anaerobic bacteria; conditions: Prevotella intermedia
[2] = test system: Peptococcus asaccharolyticus; assay: standard agar-dilution test, anaerobic bacteria; conditions: Peptoniphilus asaccharolyticus, 24-hour incubation
Peptococcus prevoti = assay: standard agar-dilution test, anaerobic bacteria
[3] = test system: Bacteroides thetaiotaomicron; assay: standard agar-dilution test, anaerobic bacteria; conditions: 24-hour incubation
Description: (§1) Table IV summarizes the activity of typical compounds of this invention, as determined by the standard agar-dilution test.
(§2) *Endpoint read after 24-hour incubation

Clostridium septicum = assay: standard agar-dilution test, anaerobic bacteria; conditions: 24-hour incubation
Description: as §1, §2

[4] = test system: Bacteroides fragilis 1936B; assay: standard agar-dilution test, anaerobic bacteria
Fusobacterium symbiosum = assay: standard agar-dilution test, anaerobic bacteria
Bacteroides corrodens = assay: standard agar-dilution test, anaerobic bacteria; conditions: Eikenella corrodens
Bacteroides vulgatis = assay: standard agar-dilution test, anaerobic bacteria
Bacteroides fragilis 111 = assay: standard agar-dilution test, anaerobic bacteria
[5] = test system: Fusobacterium necrophorum; assay: standard agar-dilution test, anaerobic bacteria
Actinomyces israelii = assay: standard agar-dilution test, anaerobic bacteria; conditions: 24-hour incubation
[6] = test system: Peptostreptococcus anaerobius; assay: standard agar-dilution test, anaerobic bacteria; conditions: 24-hour incubation
Spiroplasma citri = assay: in vitro inhibition of Spiroplasma citri measured by a color reaction; design: key to Activity (color reaction): Red (R) includes complete inhibition; red-orange (RO) indicates partial inhibition; yellow (Y) indicates no inhibition
Description: In another important aspect, the compounds of this invention are active against Spiroplasmas. Spiroplasma citri is the causative agent of citrus-stubborn disease; another Spiroplasma, corn-stunt Spiroplasma, affects the growth of corn. Table VII summarizes the in vitro activity of representative compounds of the present invention (R^2 =H in this group) against Spiroplasma citri. In this test, inhibition of S. citri is measured by a color reaction. Red (R) includes complete inhibition; red-orange (RO) indicates partial inhibition; and yellow (Y) indicates no inhibition.

[7] = test system: Bacteroides fragilis 1877; assay: standard agar-dilution test, anaerobic bacteria
[8] = test system: Bacteroides melaninogenicus 2736; assay: standard agar-dilution test, anaerobic bacteria; conditions: Bacteroides melaninogenicus 2736; 24-hour incubation; read-out: MIC
[9] = test system: Staphylococcus aureus (H-Heatley) NRRL B-314; assay: in vitro turbidometric assay (Autoturb Microbiological Assay System) against Staphylococcus aureus; conditions: nutrient broth pH 7, approximately 4 hours at 37° C., A-40104 factor A as standard
Description: The compounds are conveniently tested against a typical gram-positive organism, Staphylococcus aureus, using a turbidometric assay on a semi-automated system (Autoturb Microbiological Assay System, Elanco) described by N. R. Kuzel and F. W. Kavanagh in J. Pharmaceut. Sci, 60 (5), 764 and 767 (1971). In testing these compounds, the following parameters were used: Staphylococcus aureus (H-Heatley) NRRL B-314 in a nutrient broth medium (pH 7), incubated for approximately 4 hours at 37° C. Test samples and A-40104 factor A, which is used as a standard, were dissolved in water. The standard was presented to the Autoturb carrousel at concentrations of 1.25, 2.50, 3.75, 5.00 and 6.25 mcg/ml. Test compounds were diluted to contain approximately 2.5 to 5.0 mcg of activity per ml, as presented to the carrousel. The units of activity of some of the typical compounds of this invention (R^2 =H in group tested) in this in vitro assay are summarized in Table I

Clostridium perfringens = assay: microbe, parasite or virus in culture; conditions: 24 h
[10] = test system: Peptostreptococcus intermedius; assay: standard agar-dilution test, anaerobic bacteria
Eubacterium aerofaciens = assay: standard agar-dilution test, anaerobic bacteria; conditions: Collinsella aerofaciens
Mycoplasma gallisepticum = assay: in vitro broth-dilution studies, mycoplasma; conditions: Mycoplasmoides gallisepticum
Source text: (§3) The minimal inhibitory concentrations (MIC's) of a number of typical compounds of the present invention (R^2 =H in group tested) against various mycoplasma species, as determined by in vitro broth-dilution studies, are summarized in Table V.

Mycoplasma hyorhinis = assay: in vitro broth-dilution studies, mycoplasma
Source text: as §3

Mycoplasma synoviae = assay: in vitro broth-dilution studies, mycoplasma; conditions: Mycoplasmopsis synoviae
Source text: as §3

[11] = Bacteroides melaninogenicus 1856/28, 24-hour incubation, read-out: MIC
[12] = Peptococcus prevoti, 24-hour incubation, read-out: MIC
[13] = Bacteroides fragilis 1936B, 24-hour incubation, read-out: MIC
[14] = Bacteroides corrodens, 24-hour incubation, read-out: MIC
[15] = Bacteroides vulgatis, 24-hour incubation, read-out: MIC
[16] = Bacteroides fragilis 111, 24-hour incubation, read-out: MIC
[17] = 24-hour incubation, read-out: MIC
[18] = Bacteroides fragilis 1877, 24-hour incubation, read-out: MIC
[19] = Peptostreptococcus intermedius, 24-hour incubation, read-out: MIC
[20] = Fusobacterium symbiosum, 24-hour incubation, read-out: MIC
[21] = Eubacterium aerofaciens, 24-hour incubation, read-out: MIC
[22] = Bacteroides fragilis, 111, 24 h

Structure (SMILES) | MIC [1, 11] [µg/mL] | MIC [2] [µg/mL] | MIC (Peptococcus prevoti; [12]) [µg/mL] | MIC [3] [µg/mL] | MIC (Clostridium septicum) [µg/mL] | MIC [4, 13] [µg/mL] | MIC (Bacteroides corrodens; [14]) [µg/mL] | MIC (Bacteroides vulgatis; [15]) [µg/mL] | MIC [5, 17] [µg/mL] | MIC (Actinomyces israelii) [µg/mL] | MIC [6] [µg/mL] | Activity (color reaction) (Spiroplasma citri; 1.0 ppm) | MIC [7, 18] [µg/mL] | MIC [8] [µg/mL] | Units of Activity [9] [µg/mg] | MIC (Clostridium perfringens) [µg/mL] | MIC [10, 19] [µg/mL] | MIC (Mycoplasma gallisepticum) [µg/mL] | MIC (Mycoplasma hyorhinis) [µg/mL] | MIC (Mycoplasma synoviae) [µg/mL] | also measured
CC[C@]1(C)C[C@@H](OC(=O)CS[C@@H]2O[C@H](COC(C)=O)[C@@H](OC(C)=O)[C@H](OC(C)=O)[C@H]2OC(C)=O)[C@]2(C)[C@H](C)CC[C@]3(CCC(=O)[C@H]32)[C@@H](C)[C@@H]1O [Compound 4, 14-deoxy-14-[(2,3,4,6-tetra-O-acetyl-β-D-glucopyranosyl)thioacetoxy]-19,20-dihydromutilin] | 8 (≈ 11 µM) | ≤ 0.5 | 8 (≈ 11 µM) | 64 (≈ 88 µM) | 4 (≈ 5.5 µM) | 64 (≈ 88 µM) | 32 (≈ 44 µM) | 32 (≈ 44 µM) | ≤ 0.5 | ≤ 0.5 | 1 (≈ 1.38 µM) | R | 32 (≈ 44 µM) | 4 (≈ 5.5 µM) | 203 to 220 | > 128 | 2 (≈ 2.75 µM) | – | – | – | MIC (Fusobacterium symbiosum; Fusobacterium, 24 h): 128 µg/mL (≈ 176 µM); MIC (Bacteroides fragilis 111; [16]): 32 µg/mL (≈ 44 µM); Activity (color reaction) (Spiroplasma citri; 0.01 ppm): Y; Activity (color reaction) (Spiroplasma citri; 0.05 ppm): R; Activity (color reaction) (Spiroplasma citri; 0.1 ppm): R; MIC (Eubacterium aerofaciens; 24 h): > 128 µg/mL
CC[C@]1(C)C[C@@H](OC(=O)CS[C@@H]2O[C@H](CO)[C@@H](O)[C@H](O)[C@H]2O)[C@]2(C)[C@H](C)CC[C@]3(CCC(=O)[C@H]32)[C@@H](C)[C@@H]1O [Compound 5, 14-deoxy-14-[(β-D-glucopyranosyl)thioacetoxy]-19,20-dihydromutilin] | 2 (≈ 3.58 µM) | 4 (≈ 7.16 µM) | 2 (≈ 3.58 µM) | 64 (≈ 115 µM) | 32 (≈ 57.3 µM) | 128 (≈ 229 µM) | 64 (≈ 115 µM) | 32 (≈ 57.3 µM) | 8 (≈ 14.3 µM) | ≤ 0.5 | 8 (≈ 14.3 µM) | R | 64 (≈ 115 µM) | 4 (≈ 7.16 µM) | 29 to 31 | 8 (≈ 14.3 µM) | 2 (≈ 3.58 µM) | – | – | – | MIC (Fusobacterium symbiosum; [20]): 16 µg/mL (≈ 28.6 µM); MIC (Bacteroides fragilis 111; [16]): 64 µg/mL (≈ 115 µM); Activity (color reaction) (Spiroplasma citri; 0.01 ppm): Y; Activity (color reaction) (Spiroplasma citri; 0.05 ppm): R; Activity (color reaction) (Spiroplasma citri; 0.1 ppm): R; MIC (Eubacterium aerofaciens; [21]): 4 µg/mL (≈ 7.16 µM)
C=C[C@]1(C)C[C@@H](OC(=O)CO[C@H]2O[C@H](COC(C)=O)[C@@H](OC(C)=O)[C@H](OC(C)=O)C2=NO)[C@]2(C)[C@H](C)CC[C@]3(CCC(=O)[C@H]32)[C@@H](C)[C@@H]1O [Compound 7, 14-deoxy-14-[(2-deoxy-2-(hydroxyimino)-3,4,6-tri-O-acetyl-α-D-glucopyranosyl)oxyacetoxy]mutilin] | – | 64 (≈ 94.2 µM) | – | > 128 | > 128 | – | – | – | – | 64 (≈ 94.2 µM) | 64 (≈ 94.2 µM) | – | – | 32 (≈ 47.1 µM) | 11 to 12 | > 128 | – | 0.78 (≈ 1.15 µM) | 0.78 (≈ 1.15 µM) | > 6.25 | MIC ([1]; 1856/28, 24 h): > 128 µg/mL; MIC (Peptococcus prevoti; 24 h): 128 µg/mL (≈ 188 µM); MIC ([4]; Bacteroides fragilis, 1936B, 24 h): > 128 µg/mL; MIC (Fusobacterium symbiosum; Fusobacterium, 24 h): > 128 µg/mL; MIC (Bacteroides corrodens; 24 h): > 128 µg/mL; MIC (Bacteroides vulgatis; Bacteroides, 24 h): > 128 µg/mL; MIC (Bacteroides fragilis 111; [22]): > 128 µg/mL; MIC ([5]; 24 h): > 128 µg/mL; MIC ([7]; Bacteroides fragilis, 1877, 24 h): > 128 µg/mL; MIC ([10]; Peptostreptococcus, 24 h): > 128 µg/mL; MIC (Eubacterium aerofaciens; 24 h): > 128 µg/mL
C=C[C@]1(C)C[C@@H](OC(=O)CS[C@@H]2O[C@H](CO)[C@@H](O)[C@H](O)[C@H]2O)[C@]2(C)[C@H](C)CC[C@]3(CCC(=O)[C@H]32)[C@@H](C)[C@@H]1O [Compound 10, 14-deoxy-14-[(β-D-glucopyranosyl)thioacetoxy]mutilin] | > 128 | 16 (≈ 28.7 µM) | 16 (≈ 28.7 µM) | 64 (≈ 115 µM) | 64 (≈ 115 µM) | 64 (≈ 115 µM) | 64 (≈ 115 µM) | 64 (≈ 115 µM) | 2 (≈ 3.59 µM) | 2 (≈ 3.59 µM) | ≤ 0.5 | – | 64 (≈ 115 µM) | 32 (≈ 57.5 µM) | 36 | 64 (≈ 115 µM) | 4 (≈ 7.18 µM) | 1.56 (≈ 2.8 µM) | 1.56 (≈ 2.8 µM) | 3.12 (≈ 5.6 µM) | MIC (Fusobacterium symbiosum; [20]): 64 µg/mL (≈ 115 µM); MIC (Bacteroides fragilis 111; [16]): 128 µg/mL (≈ 230 µM); MIC (Eubacterium aerofaciens; [21]): 16 µg/mL (≈ 28.7 µM)
C=C[C@]1(C)C[C@@H](OC(=O)CS[C@@H]2O[C@H](COC(C)=O)[C@@H](OC(C)=O)[C@H](OC(C)=O)[C@H]2OC(C)=O)[C@]2(C)[C@H](C)CC[C@]3(CCC(=O)[C@H]32)[C@@H](C)[C@@H]1O [Compound 11, 14-deoxy-14-[(2,3,4,6-tetra-O-acetyl-β-D-glucopyranosyl)thioacetoxy]mutilin] | – | ≤ 0.5 | ≤ 0.5 | 16 (≈ 22.1 µM) | 16 (≈ 22.1 µM) | 32 (≈ 44.1 µM) | 32 (≈ 44.1 µM) | 32 (≈ 44.1 µM) | 16 (≈ 22.1 µM) | ≤ 0.5 | ≤ 0.5 | – | 32 (≈ 44.1 µM) | 16 (≈ 22.1 µM) | 253 to 265 | > 128 | 1 (≈ 1.38 µM) | > 0.78 | > 0.78 | 1.56 (≈ 2.15 µM) | MIC ([1]; 1856/28, 24 h): > 128 µg/mL; MIC (Fusobacterium symbiosum; Fusobacterium, 24 h): 128 µg/mL (≈ 177 µM); MIC (Bacteroides fragilis 111; [22]): 128 µg/mL (≈ 177 µM); MIC (Eubacterium aerofaciens; 24 h): > 128 µg/mL
C=C[C@]1(C)C[C@@H](OC(=O)CO[C@H]2O[C@H](COCc3ccccc3)[C@@H](OCc3ccccc3)[C@H](OCc3ccccc3)[C@H]2OCc2ccccc2)[C@]2(C)[C@H](C)CC[C@]3(CCC(=O)[C@H]32)[C@@H](C)[C@@H]1O [Example 1, 14-deoxy-14-[(2,3,4,6-tetra-O-benzyl-α-D-glucopyranosyl)oxyacetoxy]mutilin] | – | – | – | – | – | – | – | – | – | – | – | – | – | – | – | – | – | 25 (≈ 27.7 µM) | 50 (≈ 55.5 µM) | 50 (≈ 55.5 µM) | –
C=C[C@]1(C)C[C@@H](OC(=O)CO[C@@H]2O[C@H](COC(C)=O)[C@@H](OC(C)=O)[C@H](OC(C)=O)[C@H]2OC(C)=O)[C@]2(C)[C@H](C)CC[C@]3(CCC(=O)[C@H]32)[C@@H](C)[C@@H]1O [Example 3, 14-deoxy-14-[(2,3,4,6-tetra-O-acetyl-β-D-glucopyranosyl)oxyacetoxy]mutilin] | – | – | – | – | – | – | – | – | – | – | – | R | – | – | 75 to 85 | – | – | 0.78 (≈ 1.1 µM) | 0.78 (≈ 1.1 µM) | 0.78 (≈ 1.1 µM) | –
C=C[C@]1(C)C[C@@H](OC(=O)CO[C@@H]2O[C@H](CO)[C@@H](O)[C@H](O)[C@H]2O)[C@]2(C)[C@H](C)CC[C@]3(CCC(=O)[C@H]32)[C@@H](C)[C@@H]1O [Example 4, 14-deoxy-14-[(β-D-glucopyranosyl)oxyacetoxy]-mutilin] | – | – | – | – | – | – | – | – | – | – | – | R | – | – | 12 to 13 | – | – | 0.39 (≈ 0.721 µM) | 0.78 (≈ 1.44 µM) | 0.78 (≈ 1.44 µM) | Activity (color reaction) (Spiroplasma citri; 0.1 ppm): Y
